Test results taken from US11618761B2, “Phosphonium ion channel blockers and methods for use” (Nocion Therapeutics, Inc., priority 2019, dated 2023).
Counter-ions that a name gives are not always drawn.

Key:
NaV1.7 [1] = biological target: T1, NaV1.7 (Homo sapiens, UniProt Q15858); experiment: Whole cell patch clamp, external block of NaV1.7 current (compound in external solution); format: cell-based; conditions: % inhibition at 10 μM test concentration, compound applied externally for 5 minutes; read-out: Nav1.7 Extracellular Inhibition
T1 construct: expressed in transfected cells; tetracycline-inducible, kept under hygromycin and blasticidin selection
T1 sequence (Q15858 whole entry): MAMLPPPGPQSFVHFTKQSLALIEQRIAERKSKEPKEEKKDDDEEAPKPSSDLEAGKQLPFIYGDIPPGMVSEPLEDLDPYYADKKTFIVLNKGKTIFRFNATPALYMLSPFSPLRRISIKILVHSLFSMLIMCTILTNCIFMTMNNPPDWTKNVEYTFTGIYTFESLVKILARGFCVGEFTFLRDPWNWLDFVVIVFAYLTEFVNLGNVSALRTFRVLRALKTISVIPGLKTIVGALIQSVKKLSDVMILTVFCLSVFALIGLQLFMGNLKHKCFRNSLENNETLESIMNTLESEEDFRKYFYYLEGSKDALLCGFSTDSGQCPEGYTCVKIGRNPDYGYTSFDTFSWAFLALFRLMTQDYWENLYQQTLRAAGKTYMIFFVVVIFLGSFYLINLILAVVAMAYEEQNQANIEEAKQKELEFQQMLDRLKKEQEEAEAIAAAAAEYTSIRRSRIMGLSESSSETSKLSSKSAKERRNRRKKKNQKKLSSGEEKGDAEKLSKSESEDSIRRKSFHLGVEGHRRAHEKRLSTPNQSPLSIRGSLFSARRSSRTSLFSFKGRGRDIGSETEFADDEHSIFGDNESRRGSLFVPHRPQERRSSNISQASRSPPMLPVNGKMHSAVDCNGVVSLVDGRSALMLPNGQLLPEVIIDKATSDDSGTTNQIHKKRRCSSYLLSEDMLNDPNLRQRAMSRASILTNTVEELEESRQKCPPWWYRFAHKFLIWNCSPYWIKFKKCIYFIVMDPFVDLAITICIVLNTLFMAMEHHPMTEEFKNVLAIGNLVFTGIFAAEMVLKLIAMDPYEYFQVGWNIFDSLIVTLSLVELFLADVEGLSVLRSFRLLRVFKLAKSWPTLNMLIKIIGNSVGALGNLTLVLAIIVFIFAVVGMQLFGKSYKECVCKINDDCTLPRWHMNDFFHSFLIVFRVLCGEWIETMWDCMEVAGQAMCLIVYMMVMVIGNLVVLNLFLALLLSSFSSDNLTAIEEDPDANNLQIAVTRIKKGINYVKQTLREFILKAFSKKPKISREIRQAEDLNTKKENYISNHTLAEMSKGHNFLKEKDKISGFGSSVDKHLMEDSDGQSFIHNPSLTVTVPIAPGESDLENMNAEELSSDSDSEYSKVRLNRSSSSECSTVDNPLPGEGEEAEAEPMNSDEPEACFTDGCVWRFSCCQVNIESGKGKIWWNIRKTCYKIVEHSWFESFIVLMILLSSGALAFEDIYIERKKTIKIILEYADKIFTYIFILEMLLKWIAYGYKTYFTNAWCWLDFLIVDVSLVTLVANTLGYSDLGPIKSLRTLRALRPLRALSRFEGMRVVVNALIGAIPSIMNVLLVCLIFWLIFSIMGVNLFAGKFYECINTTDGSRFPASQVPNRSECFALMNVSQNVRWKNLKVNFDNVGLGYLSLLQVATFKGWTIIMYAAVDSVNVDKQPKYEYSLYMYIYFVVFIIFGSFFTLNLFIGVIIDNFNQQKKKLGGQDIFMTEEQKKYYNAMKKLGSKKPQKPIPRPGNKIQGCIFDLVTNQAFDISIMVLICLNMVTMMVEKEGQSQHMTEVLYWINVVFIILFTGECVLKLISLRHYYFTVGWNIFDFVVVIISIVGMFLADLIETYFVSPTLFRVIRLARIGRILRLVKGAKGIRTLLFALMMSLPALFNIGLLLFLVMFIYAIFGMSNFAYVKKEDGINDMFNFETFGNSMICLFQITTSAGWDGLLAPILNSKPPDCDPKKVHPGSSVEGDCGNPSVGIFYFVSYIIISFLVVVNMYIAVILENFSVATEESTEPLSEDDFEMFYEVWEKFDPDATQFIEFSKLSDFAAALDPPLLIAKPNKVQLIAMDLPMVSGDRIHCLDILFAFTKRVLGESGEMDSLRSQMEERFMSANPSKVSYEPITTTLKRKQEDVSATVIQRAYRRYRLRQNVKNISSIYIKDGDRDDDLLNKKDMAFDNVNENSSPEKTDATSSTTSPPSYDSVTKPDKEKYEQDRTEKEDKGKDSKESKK
Method: NaV1.7 was expressed upon induction with tetracycline. Cells were cultured in DMEM containing 10% dialyzed Fetal Bovine Serum (VWR, Radnor, Pa.), 1% Glutamax (VWR, Radnor, Pa.), 1% Penicillin-Streptomycin (VWR, Radnor, Pa.), 100 mg/L Hygromycin (Thermo Fisher Scientific, Waltham, Mass.) and 5 mg/L Blasticidin (Alfa Aesar, Haverhill, Mass.). Cells were grown and maintained at 37° C. in a humidified environment containing 10% CO2 in air. Cells were detached from the culture flask for passage and harvested using 0.05% Trypsin-EDTA (Thermo Fisher Scientific, Waltham, Mass.). To induce NaV1.7, cells were induced with tetracycline (0.1-1 μg/mL, IBI Scientific, Peosta, Iowa) the day before recording and plated onto 24-well plates. Cells were washed with DPBS (VWR, Radnor, Pa.), trypsinized and then triturated five times in 10 mL of growth media to break apart cell aggregates. […]
Once the recording was started, the voltage protocol was run at 30 second intervals for 5 minutes to get a stable baseline. […] Currents were recorded using PatchMaster software with Heka EPC10 (HEKA Electronics, Lambrecht, Germany). […]
(§1) The data was plotted using the Patchmaster software (HEKA Electronics, Lambrecht, Germany) and was analyzed by plotting the minimum current during the voltage step to −20 mV (peak inward current) as a function of time. […]

NaV1.7 [2] = biological target: T1, NaV1.7; experiment: Whole cell patch clamp, internal block of NaV1.7 current (compound in internal solution); format: cell-based; conditions: compound applied internally, 5 Hz stimulation, read-out: Nav1.7 Intracellular Inhibition; for inhibition at 3 µM: % inhibition at 3 μM test concentration; for inhibition at 10 µM: % inhibition at 10 μM test concentration
Method: NaV1.7 was expressed upon induction with tetracycline. Cells were cultured in DMEM containing 10% dialyzed Fetal Bovine Serum (VWR, Radnor, Pa.), 1% Glutamax (VWR, Radnor, Pa.), 1% Penicillin-Streptomycin (VWR, Radnor, Pa.), 100 mg/L Hygromycin (Thermo Fisher Scientific, Waltham, Mass.) and 5 mg/L Blasticidin (Alfa Aesar, Haverhill, Mass.). Cells were grown and maintained at 37° C. in a humidified environment containing 10% CO2 in air. Cells were detached from the culture flask for passage and harvested using 0.05% Trypsin-EDTA (Thermo Fisher Scientific, Waltham, Mass.). To induce NaV1.7, cells were induced with tetracycline (0.1-1 μg/mL, IBI Scientific, Peosta, Iowa) the day before recording and plated onto 24-well plates. Cells were washed with DPBS (VWR, Radnor, Pa.), trypsinized and then triturated five times in 10 mL of growth media to break apart cell aggregates. For one 24-well plate, 2 mL of cell suspension was mixed with 23 mL of fresh growth media and 0.1-1 μg/mL tetracycline added. 1 ml of mixed media with cells was then added to each well of a 24-well plate, with a 12 mm coverslip already placed in the bottom of the well. Cells were then incubated in 37° C. and 10% CO2 overnight.
The intracellular solution contained the following (in mM) CsCl 135, NaCl 10, EGTA 10, HEPES 10, MgCl2 2, adjusted to pH 7.2 with CsOH. The external solution was a normal Ringer solution containing (in mM) NaCl 155, HEPES 10, glucose 10, KCl 3.5, CaCl2) 1.5, MgCl2 1 adjusted to pH 7.4 with NaOH. CsCl was from Alfa Aesar, Haverhill, Mass. All other chemicals were from Sigma-Aldrich, St. Louis, Mo. In order to test the degree of internal block by test compounds the compounds were dissolved in internal solution at the indicated test concentration. […] In order to test the degree of external block by test compounds the compounds were dissolved in external solution at the indicated test concentration.
18-24 hours after cells were induced with tetracycline, coverslips were placed into a chamber filled with Normal Ringer solution at room temperature and the chamber was placed on a microscope. Pipettes were pulled from borosilicate glass on a P97 puller (Sutter Instrument, Novato, Calif.) and were polished with a MF-830 Microforge (Narishige International USA, Inc, Amityville, N.Y.) to have a resistance of 1.5-2.5 MΩ when filled with CsCl internal solution at room temperature. Healthy cells (those that are round and translucent with no visible blemishes) were chosen for seal formation. A seal was formed between the pipette and the cell, and a brief pulse of suction was used to “break in” and establish the whole-cell configuration. The membrane potential was held at −100 mV before the voltage protocol begins. Only cells with series resistance between 1.5-5 MΩ were retained for analysis. The voltage protocol was as follows: Cells were held at −100 mV for 12 ms followed by a hyperpolarizing step to −105 mV for 12 ms to monitor the leak. Cells were then stepped back to −100 mV for 40 ms. Cells were then depolarized to −20 mV for 10 ms and then returned to −100 mV for 26 ms (the FIGURE).
Once the recording was started, the voltage protocol was run at 30 second intervals for 5 minutes to get a stable baseline. This was followed by four 30-second periods of 5 Hz stimulation of the same voltage protocol separated by 1 minute of rest which was then followed by 0.33 Hz stimulation after the last train. Currents were recorded using PatchMaster software with Heka EPC10 (HEKA Electronics, Lambrecht, Germany). Only cells with inward current amplitudes at −20 mV between 400 pA and 4 nA were accepted. In addition, cells having leak currents greater than 10% of their current amplitudes were discarded.
as §1

[3] = PAMPA membrane permeability assay; format: in vitro ADME; conditions: pH 7.4 buffer, GIT lipid, 4 hours incubation, 50 uM
Method: The PAMPA assay (pION, Inc., Woburn Mass.) was used to determine the ability of compounds of the invention to cross an artificial lipid membrane by passive diffusion. Test compounds were dissolved in DMSO (10 mM) and diluted 200-fold in buffer (pION Inc., pH 7.4) to provide 50 uM stock solutions. Buffer (150 μL) was added to a UV blank plate and stock solutions (150 μL) were transferred to a UV reference plate. The blank and reference spectrum were read using a spectrophotometer. Stock solutions (200 μL) were added to the donor plate of the PAMPA sandwich plate and an accept plate painted with GIT lipid (pION Inc, 5 μL) was placed on top. Buffer (200 μL) was added to the acceptor plate and the PAMPA sandwich plate was incubated for 4 hours. Aliquots (150 μL) from the acceptor plate were added to a UV plate and read as acceptor spectrum. Aliquots (150 μL) of the donor solutions were added to a UV analysis plate and read as donor spectrum. The permeability coefficient of test compounds was calculated using PAMPA Explorer™ software (version 3.5.0.4) based on the AUC of the reference plate, the donor plate, and the acceptor plate.

| inhibition at 10 µM (NaV1.7 [1]) | inhibition at 3 µM (NaV1.7 [2]) | PAMPA (10^−6 cm/s) [3] | inhibition at 10 µM (NaV1.7 [2]) | SMILES |
| --- | --- | --- | --- | --- |
| < 40% | – | – | – | COC(=O)c1scc(C)c1NC(=O)C[P+]1(Cc2ccccc2)CCCCC1 [Compound 8] |
| – | 70 to 90% | + (“+” (<0.1 10^−6 cm/s)) | – | CC[P+](CC)(CC)CC(=O)Nc1c(C)csc1C(=O)OC(C)(C)C.[Br-] [Compound 21A] |
| – | > 90% | +++. (“+++” (2.0-10.010^−6 cm/s)) | – | CCC(C(=O)Nc1c(C)csc1C(=O)OC)[P+]1(Cc2ccccc2)CCCCC1 (stereo not drawn) [Compound 10A, 1-benzyl-1-(1-((2-(methoxycarbonyl)-4-methylthiophen-3-yl)amino)-1-oxobutan-2-yl)phosphinan-1-ium Formate] |
| – | – | + (“+” (<0.1 10^−6 cm/s)) | 40 to 70% | CC[P+](CC)(CC)CC(=O)Nc1c(C)csc1C(=O)OC.[Br-] [Compound 1A, triethyl(2-((2-(methoxycarbonyl)-4-methylthiophen-3-yl)amino)-2-oxoethyl) Phosphonium Bromide] |
| – | 70 to 90% | ++ (“++” (0.1-2.0 10^−6 cm/s)) | – | COC(=O)c1scc(C)c1NC(=O)C[P+]1(Cc2ccccc2)CCCCC1.[Br-] [Compound 8A, 1-benzyl-1-(2-((2-(methoxycarbonyl)-4-methylthiophen-3-yl)amino)-2-oxoethyl)phosphinan-1-ium Bromide] |
| – | – | + (“+” (<0.1 10^−6 cm/s)) | 70 to 95% | CCCC[P+](CCCC)(CCCC)CC(=O)Nc1c(C)csc1C(=O)OC.[Br-] [Compound 17A, tributyl(2-((2-(methoxycarbonyl)-4-methylthiophen-3-yl)amino)-2-oxoethyl) Phosphonium Bromide] |
| – | – | – | 70 to 95% | COC(=O)c1scc(C)c1NC(=O)C[P+](c1ccccc1)(c1ccccc1)c1ccccc1 [Compound 19A] |
